From paper PMC4981696, “Non-target Site Tolerance Mechanisms Describe Tolerance to Glyphosate in Avena sterilis” (Frontiers in Plant Science, 2016)

What was measured:
Assay in all cases: phosphate release assay (EnzChek phosphate kit)
Details in all cases: partially purified leaf extract; 100 mM MOPS, 1 mM MgCl2, 10% glycerol, 2 mM sodium molybdate, 200 mM NaF; glyphosate 0-1000 μM; range is 95% CI; read-out: I50(μM)(95% CI)^a
[1] = tested on: T1, EPSPS (A. sterilis UE accession); format: biochemical, Avena sterilis
T1 construct: homeologous copies not distinguished
Excerpt: phosphate release assay (EnzChek phosphate kit) on EPSPS (A. sterilis UE accession)

[2] = tested on: T2, EPSPS (A. sterilis E accession); format: biochemical, Avena sterilis
T2 construct: homeologous copies not distinguished
Excerpt: phosphate release assay (EnzChek phosphate kit) on EPSPS (A. sterilis E accession)

[3] = target: T3, EPSPS (L. rigidum S population) (Lolium rigidum, UniProt A0A5B9T5S8); format: biochemical
T3 sequence (A0A5B9T5S8 61-505): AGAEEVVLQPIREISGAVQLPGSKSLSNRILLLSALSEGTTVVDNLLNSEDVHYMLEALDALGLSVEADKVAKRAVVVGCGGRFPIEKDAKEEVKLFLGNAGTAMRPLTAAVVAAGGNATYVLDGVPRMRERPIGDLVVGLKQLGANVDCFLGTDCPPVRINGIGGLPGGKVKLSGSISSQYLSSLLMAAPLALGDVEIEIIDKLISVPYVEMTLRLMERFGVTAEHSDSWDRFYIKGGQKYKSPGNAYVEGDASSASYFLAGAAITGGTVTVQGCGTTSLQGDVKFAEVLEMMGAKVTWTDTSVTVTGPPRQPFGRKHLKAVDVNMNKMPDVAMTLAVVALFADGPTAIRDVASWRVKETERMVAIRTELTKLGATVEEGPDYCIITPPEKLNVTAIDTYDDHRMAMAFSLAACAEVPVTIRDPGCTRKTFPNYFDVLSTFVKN
Excerpt: phosphate release assay (EnzChek phosphate kit) on EPSPS (L. rigidum S population)

Structure (SMILES): O=C(O)CNCP(=O)(O)O [glyphosate]
- IC50 [1]: 42.4 µM
- IC50 [2]: 53.5 µM
- IC50 [3]: 5.1 µM
